Experimental data as given in article PMC5218480 (PLoS ONE, 2017).

System: MV-4-11 cells
Test: Gene expression microarray analysis (Affymetrix PrimeView) and GSEA
Assay type: cell-based, human
Design: RFU PODN (11730768_x_at) / Fold change /veh PODN (11730768_x_at) / RFU LINC00158 (11744669_a_at) / Fold change /veh LINC00158 (11744669_a_at) / RFU DUSP10 (11751237_a_at) / Fold change /veh DUSP10 (11751237_a_at) / RFU ID3 (11757404_x_at) / Fold change /veh ID3 (11757404_x_at) / RFU PLEKHG5 (11737974_s_at) / Fold change /veh PLEKHG5 (11737974_s_at) / RFU LRRC4B (11730491_at) / Fold change /veh LRRC4B (11730491_at) / RFU GIMAP4 (11747438_a_at) / Fold change /veh GIMAP4 (11747438_a_at) / RFU KRT8 (11758183_x_at) / Fold change /veh KRT8 (11758183_x_at) / RFU CNN1 (11734310_a_at) / Fold change /veh CNN1 (11734310_a_at) / RFU VPS37D (11726825_at) / Fold change /veh VPS37D (11726825_at) / RFU C10orf10 (11716522_x_at) / Fold change /veh C10orf10 (11716522_x_at) / RFU KIR2DL2 /// KIR2DL4 /// KIR2DL5A /// KIR2DL5B /// KIR2DS1 /// KIR2DS2 /// KIR2DS3 /// KIR2DS4 /// KIR3DL3 /// KIR3DL3 /// KIR3DS1 (11738374_at) / Fold change /veh KIR2DL2 /// KIR2DL4 /// KIR2DL5A /// KIR2DL5B /// KIR2DS1 /// KIR2DS2 /// KIR2DS3 /// KIR2DS4 /// KIR3DL3 /// KIR3DL3 /// KIR3DS1 (11738374_at) / RFU C1QL1 (11718748_at) / Fold change /veh C1QL1 (11718748_at) / RFU TMPRSS4 (11747572_a_at) / Fold change /veh TMPRSS4 (11747572_a_at) / RFU HAMP (11756126_x_at) / Fold change /veh HAMP (11756126_x_at) / RFU RNFT2 (11725882_a_at) / Fold change /veh RNFT2 (11725882_a_at) / RFU NR4A2 (11747474_a_at) / Fold change /veh NR4A2 (11747474_a_at) / RFU ABCC12 (11746883_a_at) / Fold change /veh ABCC12 (11746883_a_at) / RFU TMEM136 (11760407_x_at) / Fold change /veh TMEM136 (11760407_x_at) / RFU CLDN22 /// WWC2 (11732394_at) / Fold change /veh CLDN22 /// WWC2 (11732394_at) / RFU HLA-DPB1 (11760878_x_at) / Fold change /veh HLA-DPB1 (11760878_x_at) / RFU SPINT1 (11716480_a_at) / Fold change /veh SPINT1 (11716480_a_at) / RFU GAP43 (11754022_s_at) / Fold change /veh GAP43 (11754022_s_at) / RFU A4GNT (11735810_at) / Fold change /veh A4GNT (11735810_at) / RFU PRB3 (11715151_x_at) / Fold change /veh PRB3 (11715151_x_at) / RFU TUBB4B (11761932_at) / Fold change /veh TUBB4B (11761932_at) / RFU CAPN14 (11732068_a_at) / Fold change /veh CAPN14 (11732068_a_at) / RFU TMCC2 (11721928_a_at) / Fold change /veh TMCC2 (11721928_a_at) / RFU IRGQ (11745062_a_at) / Fold change /veh IRGQ (11745062_a_at) / RFU FAM174B (11720279_a_at) / Fold change /veh FAM174B (11720279_a_at) / RFU TMPRSS4 (11748680_a_at) / Fold change /veh TMPRSS4 (11748680_a_at) / RFU FAM212B (11763350_a_at) / Fold change /veh FAM212B (11763350_a_at) / RFU PLEKHG5 (11743358_a_at) / Fold change /veh PLEKHG5 (11743358_a_at) / RFU ZSCAN30 (11745921_a_at) / Fold change /veh ZSCAN30 (11745921_a_at) / RFU CMKLR1 (11741424_a_at) / Fold change /veh CMKLR1 (11741424_a_at) / RFU LOC101060620 /// MAPK8IP1 (11723275_at) / Fold change /veh LOC101060620 /// MAPK8IP1 (11723275_at) / RFU SPTSSB (11747773_x_at) / Fold change /veh SPTSSB (11747773_x_at) / RFU PRSS12 (11739890_at) / Fold change /veh PRSS12 (11739890_at) / RFU BIN1 (11741810_x_at) / Fold change /veh BIN1 (11741810_x_at) / RFU WNT11 (11732464_a_at) / Fold change /veh WNT11 (11732464_a_at) / RFU C10orf10 (11716521_a_at) / Fold change /veh C10orf10 (11716521_a_at) / RFU C5orf56 (11738089_at) / Fold change /veh C5orf56 (11738089_at) / RFU CYB561 (11721691_x_at) / Fold change /veh CYB561 (11721691_x_at) / RFU ANKRD19P (11752326_a_at) / Fold change /veh ANKRD19P (11752326_a_at) / RFU OR2T12 /// OR2T33 /// OR2T8 (11738714_s_at) / Fold change /veh OR2T12 /// OR2T33 /// OR2T8 (11738714_s_at) / RFU VCAN (11748164_a_at) / Fold change /veh VCAN (11748164_a_at) / RFU JSRP1 (11732532_at) / Fold change /veh JSRP1 (11732532_at) / RFU KRTAP10-11 (11738290_x_at) / Fold change /veh KRTAP10-11 (11738290_x_at) / RFU MYO3A (11730013_a_at) / Fold change /veh MYO3A (11730013_a_at) / RFU EBF3 (11725865_a_at) / Fold change /veh EBF3 (11725865_a_at) / RFU CAMK2N1 (11719241_x_at) / Fold change /veh CAMK2N1 (11719241_x_at) / RFU C5orf56 (11738088_a_at) / Fold change /veh C5orf56 (11738088_a_at) / RFU OLFML3 (11715873_a_at) / Fold change /veh OLFML3 (11715873_a_at) / RFU LOC100653217 /// NTM (11731650_a_at) / Fold change /veh LOC100653217 /// NTM (11731650_a_at) / RFU MAPK11 (11762145_a_at) / Fold change /veh MAPK11 (11762145_a_at) / RFU FIZ1 (11724087_x_at) / Fold change /veh FIZ1 (11724087_x_at) / RFU OASL (11726364_x_at) / Fold change /veh OASL (11726364_x_at) / RFU SOX15 (11748057_x_at) / Fold change /veh SOX15 (11748057_x_at) / RFU CD79A (11719716_a_at) / Fold change /veh CD79A (11719716_a_at) / RFU HIST1H1D (11736915_at) / Fold change /veh HIST1H1D (11736915_at) / RFU CASKIN2 (11723855_a_at) / Fold change /veh CASKIN2 (11723855_a_at) / RFU LOC730098 (11760151_x_at) / Fold change /veh LOC730098 (11760151_x_at) / RFU OR4N2 (11742367_at) / Fold change /veh OR4N2 (11742367_at) / RFU PRRT2 (11749266_a_at) / Fold change /veh PRRT2 (11749266_a_at) / RFU SNX32 (11753110_a_at) / Fold change /veh SNX32 (11753110_a_at) / RFU CDHR5 (11726645_a_at) / Fold change /veh CDHR5 (11726645_a_at) / RFU RCAN1 (11760418_a_at) / Fold change /veh RCAN1 (11760418_a_at) / RFU FAM167A (11723789_a_at) / Fold change /veh FAM167A (11723789_a_at) / RFU FAM26E (11764081_at) / Fold change /veh FAM26E (11764081_at) / RFU ISYNA1 (11749810_s_at) / Fold change /veh ISYNA1 (11749810_s_at) / RFU ACY1 (11761880_at) / Fold change /veh ACY1 (11761880_at) / RFU 11764098_at / Fold change /veh 11764098_at / RFU SAMD14 (11745864_x_at) / Fold change /veh SAMD14 (11745864_x_at) / RFU NPB (11741838_a_at) / Fold change /veh NPB (11741838_a_at) / RFU TMPRSS6 (11731388_a_at) / Fold change /veh TMPRSS6 (11731388_a_at) / RFU KRTAP10-2 (11738614_at) / Fold change /veh KRTAP10-2 (11738614_at) / RFU ARHGAP8 /// PRR5-ARHGAP8 (11727945_x_at) / Fold change /veh ARHGAP8 /// PRR5-ARHGAP8 (11727945_x_at) / RFU KRTAP5-7 /// NADSYN1 (11734609_at) / Fold change /veh KRTAP5-7 /// NADSYN1 (11734609_at) / RFU RASL12 (11751679_a_at) / Fold change /veh RASL12 (11751679_a_at) / RFU CDKN2B (11736163_a_at) / Fold change /veh CDKN2B (11736163_a_at) / RFU PRF1 (11729649_at) / Fold change /veh PRF1 (11729649_at) / RFU, ZNF638 /// ZNF638-IT1 / Fold change vs veh, ZNF638 /// ZNF638-IT1 / RFU, PANK3 / Fold change vs veh, PANK3 / RFU, SH3YL1 / Fold change vs veh, SH3YL1 / RFU, ZEB2 / Fold change vs veh, ZEB2 / RFU, NRIP1 / Fold change vs veh, NRIP1 / RFU, PTTG1IP / Fold change vs veh, PTTG1IP / RFU, CAPN2 / Fold change vs veh, CAPN2 / RFU, MED14 / Fold change vs veh, MED14 / RFU, SNORA58 / Fold change vs veh, SNORA58 / RFU, C1orf63 / Fold change vs veh, C1orf63 / RFU, LRRFIP1 / Fold change vs veh, LRRFIP1 / RFU, NDUFAF7 / Fold change vs veh, NDUFAF7 / RFU, SLC12A2 / Fold change vs veh, SLC12A2 / RFU, IBTK / Fold change vs veh, IBTK / RFU, ESF1 / Fold change vs veh, ESF1 / Fold change vs veh, TMEM50B / RFU, TAOK1 / Fold change vs veh, TAOK1 / RFU, ACBD3 / Fold change vs veh, ACBD3 / RFU, TMA16 / Fold change vs veh, TMA16 / RFU, RWDD3 / Fold change vs veh, RWDD3 / RFU, BCAT1 / Fold change vs veh, BCAT1 / RFU, EDEM3 / Fold change vs veh, EDEM3 / RFU, TMEM33 / Fold change vs veh, TMEM33 / RFU, WDR75 / Fold change vs veh, WDR75 / RFU, AHCTF1 / Fold change vs veh, AHCTF1 / RFU, TFRC / Fold change vs veh, TFRC / RFU, ZDHHC17 / Fold change vs veh, ZDHHC17 / RFU, NOM1 / Fold change vs veh, NOM1 / RFU, ARL8B / Fold change vs veh, ARL8B / RFU, ZBTB11 / Fold change vs veh, ZBTB11 / RFU, TAMM41 / Fold change vs veh, TAMM41 / RFU, KIAA1704 /// LOC100996395 / Fold change vs veh, KIAA1704 /// LOC100996395 / RFU, ING1 / Fold change vs veh, ING1 / RFU, TRMT61B / Fold change vs veh, TRMT61B / RFU, FUBP3 / Fold change vs veh, FUBP3 / RFU, TP53 / Fold change vs veh, TP53 / RFU, TNKS2 / Fold change vs veh, TNKS2 / RFU, ZFP14 / Fold change vs veh, ZFP14 / RFU, ACTR2 / Fold change vs veh, ACTR2 / RFU, PPP3R1 / Fold change vs veh, PPP3R1 / RFU, PIK3R1 / Fold change vs veh, PIK3R1 / RFU, HNRNPA1 / Fold change vs veh, HNRNPA1 / RFU, RNF170 / Fold change vs veh, RNF170 / RFU, ZNF28 / Fold change vs veh, ZNF28 / RFU, RNGTT / Fold change vs veh, RNGTT / RFU, OGT / Fold change vs veh, OGT / RFU, BRD1 / Fold change vs veh, BRD1 / RFU, MARS / Fold change vs veh, MARS / RFU, ZNF655 / Fold change vs veh, ZNF655 / RFU, FAHD1 / Fold change vs veh, FAHD1 / RFU, BDP1 / Fold change vs veh, BDP1 / RFU, LRRCC1 / Fold change vs veh, LRRCC1 / RFU, ARID1A / Fold change vs veh, ARID1A / RFU, ZNF146 / Fold change vs veh, ZNF146 / RFU, ZNF330 / Fold change vs veh, ZNF330 / RFU, GPN3 / Fold change vs veh, GPN3 / RFU, C9orf123 / Fold change vs veh, C9orf123 / RFU, N4BP2L2 / Fold change vs veh, N4BP2L2 / RFU, ARFIP1 / Fold change vs veh, ARFIP1 / RFU, FAM179B / Fold change vs veh, FAM179B / RFU, BCL10 / Fold change vs veh, BCL10 / RFU, UHRF1BP1L / Fold change vs veh, UHRF1BP1L / RFU, BET1 / Fold change vs veh, BET1 / RFU, CNOT2 / Fold change vs veh, CNOT2 / RFU, ZNF268 / Fold change vs veh, ZNF268 / Fold change vs veh, ZNF507 / RFU, DGCR2 / Fold change vs veh, DGCR2 / RFU, WDSUB1 / Fold change vs veh, WDSUB1 / Fold change vs veh, HSP90B1 /// MIR3652 / RFU, ADSS / Fold change vs veh, ADSS / RFU, GK / Fold change vs veh, GK / RFU, ZNF148 / Fold change vs veh, ZNF148 / RFU, TAF9 / Fold change vs veh, TAF9 / RFU, SLC1A5 / Fold change vs veh, SLC1A5 / RFU, SLMO2 / Fold change vs veh, SLMO2 / RFU, ABCC4 / Fold change vs veh, ABCC4 / RFU, LOC101060439 /// RAP1B / Fold change vs veh, LOC101060439 /// RAP1B / RFU, RFX7 / Fold change vs veh, RFX7 / RFU, GTPBP10 / Fold change vs veh, GTPBP10 / RFU, CNEP1R1 / Fold change vs veh, CNEP1R1 / RFU, BIVM-ERCC5 /// ERCC5 / Fold change vs veh, BIVM-ERCC5 /// ERCC5 / RFU, ILF3 / Fold change vs veh, ILF3 / RFU 11762660_at / Fold change /veh 11762660_at / RFU VCAN (11757783_s_at) / Fold change /veh VCAN (11757783_s_at) / RFU DDX43 (11728927_at) / Fold change /veh DDX43 (11728927_at) / RFU KRT8 (11758188_x_at) / Fold change /veh KRT8 (11758188_x_at) / RFU NKD1 (11759106_at) / Fold change /veh NKD1 (11759106_at) / RFU SRD5A1 (11742802_a_at) / Fold change /veh SRD5A1 (11742802_a_at) / RFU TPSAB1 /// TPSB2 (11721975_s_at) / Fold change /veh TPSAB1 /// TPSB2 (11721975_s_at) / RFU GSTM3 (11746129_a_at) / Fold change /veh GSTM3 (11746129_a_at) / RFU IL23R (11737362_x_at) / Fold change /veh IL23R (11737362_x_at) / RFU TMEM51 (11727254_a_at) / Fold change /veh TMEM51 (11727254_a_at) / RFU PIWIL2 (11732686_x_at) / Fold change /veh PIWIL2 (11732686_x_at) / RFU ORM1 (11744905_x_at) / Fold change /veh ORM1 (11744905_x_at) / RFU CCDC152 (11743942_at) / Fold change /veh CCDC152 (11743942_at) / RFU ECM1 (11717891_a_at) / Fold change /veh ECM1 (11717891_a_at) / RFU IL23R (11748794_a_at) / Fold change /veh IL23R (11748794_a_at) / RFU TNFAIP8L3 (11732012_x_at) / Fold change /veh TNFAIP8L3 (11732012_x_at) / RFU MBOAT4 (11741988_at) / Fold change /veh MBOAT4 (11741988_at) / RFU 11764193_at / Fold change /veh 11764193_at / RFU TMEM53 (11763286_at) / Fold change /veh TMEM53 (11763286_at) / RFU MAGEB2 (11727129_at) / Fold change /veh MAGEB2 (11727129_at) / RFU TMEM200A (11744735_a_at) / Fold change /veh TMEM200A (11744735_a_at) / RFU CCDC152 (11751479_a_at) / Fold change /veh CCDC152 (11751479_a_at) / RFU FAM211A (11726209_a_at) / Fold change /veh FAM211A (11726209_a_at) / RFU RGS16 (11746705_a_at) / Fold change /veh RGS16 (11746705_a_at) / RFU VCAN (11755009_s_at) / Fold change /veh VCAN (11755009_s_at) / RFU RHOB (11743442_s_at) / Fold change /veh RHOB (11743442_s_at) / RFU RGS16 (11720943_a_at) / Fold change /veh RGS16 (11720943_a_at) / RFU RGS16 (11720944_at) / Fold change /veh RGS16 (11720944_at) / RFU, VPS4B / Fold change vs veh, VPS4B / RFU, CREB1 / Fold change vs veh, CREB1 / RFU, DNAJC13 / Fold change vs veh, DNAJC13 / RFU, GNAQ / Fold change vs veh, GNAQ / RFU, CDK5R1 / Fold change vs veh, CDK5R1 / RFU, ZRANB3 / Fold change vs veh, ZRANB3 / RFU, CUL4A / Fold change vs veh, CUL4A / RFU, CCNY / Fold change vs veh, CCNY / RFU, UFL1 / Fold change vs veh, UFL1 / RFU, COG3 / Fold change vs veh, COG3 / RFU, DIAPH2 / Fold change vs veh, DIAPH2 / RFU, SKA2 / Fold change vs veh, SKA2 / RFU, AFF3 / Fold change vs veh, AFF3 / RFU, LMF1 / Fold change vs veh, LMF1 / RFU, IPO11 / Fold change vs veh, IPO11 / RFU, DFFB / Fold change vs veh, DFFB / RFU, FOXP1 / Fold change vs veh, FOXP1 / RFU, CARD8 / Fold change vs veh, CARD8 / RFU, STRN3 / Fold change vs veh, STRN3 / RFU, ADK / Fold change vs veh, ADK / RFU, RASSF2 / Fold change vs veh, RASSF2 / RFU, WIPF1 / Fold change vs veh, WIPF1 / RFU, LARP1B / Fold change vs veh, LARP1B / RFU, RASA1 / Fold change vs veh, RASA1 / RFU, RB1 / Fold change vs veh, RB1 / RFU, PPFIA1 / Fold change vs veh, PPFIA1 / RFU, MAT2A / Fold change vs veh, MAT2A / RFU, CCT5 / Fold change vs veh, CCT5 / RFU, WDR92 / Fold change vs veh, WDR92 / RFU, CUX1 / Fold change vs veh, CUX1 / RFU, TTC7A / Fold change vs veh, TTC7A / RFU, TMEM135 / Fold change vs veh, TMEM135 / RFU, DEPTOR / Fold change vs veh, DEPTOR / RFU, CPM / Fold change vs veh, CPM / RFU, DNAJB6 / Fold change vs veh, DNAJB6 / RFU, CACNA2D3 / Fold change vs veh, CACNA2D3 / RFU, DTX4 / Fold change vs veh, DTX4 / RFU, TFCP2 / Fold change vs veh, TFCP2 / RFU, GMCL1 /// GMCL1P1 / Fold change vs veh, GMCL1 /// GMCL1P1 / RFU, AEBP2 / Fold change vs veh, AEBP2 / RFU, SNHG1 /// SNORD22 /// SNORD25 /// SNORD26 /// SNORD27 /// SNORD28 /// SNORD29 /// SNORD31 / Fold change vs veh, SNHG1 /// SNORD22 /// SNORD25 /// SNORD26 /// SNORD27 /// SNORD28 /// SNORD29 /// SNORD31 / Fold change (Aza/veh), C12orf56 (ProbeSet 11735607_a_at) / Fold change (ACY-1035/veh), C12orf56 (ProbeSet 11735607_a_at) / Fold change (Aza/veh), FGFR1OP (ProbeSet 11751329_s_at) / Fold change (ACY-1035/veh), FGFR1OP (ProbeSet 11751329_s_at) / Fold change (Aza/veh), VPS36 (ProbeSet 11739960_a_at) / Fold change (ACY-1035/veh), VPS36 (ProbeSet 11739960_a_at) / RFU SYPL1 (11715823_x_at) / Fold change /veh SYPL1 (11715823_x_at) / RFU IGFBP7 (11715501_s_at) / Fold change /veh IGFBP7 (11715501_s_at) / RFU REEP3 (11722064_at) / Fold change /veh REEP3 (11722064_at) / RFU IGLL1 (11728026_x_at) / Fold change /veh IGLL1 (11728026_x_at): dose or concentration left out as unconfirmed
Settings: ProbeSet 11727545_at; LIST B

## Nc1ccc(-c2cccs2)cc1NC(=O)c1ccc2c(c1)cc(C1CC1)n2CCN1CCOCC1 [ACY-1035]
  Fold change vs veh, PANK3: 0.83
